Experimental data: ChEMBL document CHEMBL4616724, “Topoisomerase Inhibitors Addressing Fluoroquinolone Resistance in Gram-Negative Bacteria” (J Med Chem, 2020)
≈ marks a conversion by molar mass, not a printed value. Blank lines part the entries; values can stand above or below the molecule they belong to.

Columns and labels:
[1] = Selectivity ratio of MIC for wild type Escherichia coli ATCC 25922 to MIC for Escherichia coli BW25113/JW0451-2 harboring AcrB deletion mutant; format: functional
Escherichia coli [2] = experiment: Antibacterial activity against wild type Escherichia coli ATCC 25922 at pH 7.4 by CLSI-based broth microdilution assay; format: functional
[3] = n-Octanol-PBS buffer partition coefficient, log D of the compound at pH 7.4 after overnight incubation by LC/UV/qTOF analysis; format: physicochemical
Pseudomonas aeruginosa [4] = experiment: Antibacterial activity against Pseudomonas aeruginosa K1542/K767 harboring MexB/MexXY deletion mutant by CLSI-based broth microdilution assay; format: functional
Escherichia coli [5] = experiment: Antibacterial activity against wild type Escherichia coli ATCC 25922 at pH 5.8 by CLSI-based broth microdilution assay; format: functional
Escherichia coli [6] = experiment: Antibacterial activity against Escherichia coli BW25113/JW0451-2 harboring AcrB deletion mutant by CLSI-based broth microdilution assay; format: functional
[7] = Intrinsic clearance in human liver microsomes at 1 uM in presence of NADPH and measured up to 30 mins by LC-MS/MS analysis; format: ADME, Microsome; settings: read-out: CLH
Escherichia coli [8] = experiment: Ratio of MIC for antibacterial activity against wild type Escherichia coli ATCC 25922 at pH 5.8 to MIC for antibacterial activity against wild type Escherichia coli ATCC 25922 at pH 7.4; format: functional
[9] = biological target: Voltage-gated inwardly rectifying potassium channel KCNH2 (Homo sapiens, UniProt Q12809); experiment: Inhibition of human ERG expressed in CHOK1 cells by QPatch automated patch-clamp assay; format: cell-based, CHO-K1
Sequence of Voltage-gated inwardly rectifying potassium channel KCNH2 (Q12809 whole entry): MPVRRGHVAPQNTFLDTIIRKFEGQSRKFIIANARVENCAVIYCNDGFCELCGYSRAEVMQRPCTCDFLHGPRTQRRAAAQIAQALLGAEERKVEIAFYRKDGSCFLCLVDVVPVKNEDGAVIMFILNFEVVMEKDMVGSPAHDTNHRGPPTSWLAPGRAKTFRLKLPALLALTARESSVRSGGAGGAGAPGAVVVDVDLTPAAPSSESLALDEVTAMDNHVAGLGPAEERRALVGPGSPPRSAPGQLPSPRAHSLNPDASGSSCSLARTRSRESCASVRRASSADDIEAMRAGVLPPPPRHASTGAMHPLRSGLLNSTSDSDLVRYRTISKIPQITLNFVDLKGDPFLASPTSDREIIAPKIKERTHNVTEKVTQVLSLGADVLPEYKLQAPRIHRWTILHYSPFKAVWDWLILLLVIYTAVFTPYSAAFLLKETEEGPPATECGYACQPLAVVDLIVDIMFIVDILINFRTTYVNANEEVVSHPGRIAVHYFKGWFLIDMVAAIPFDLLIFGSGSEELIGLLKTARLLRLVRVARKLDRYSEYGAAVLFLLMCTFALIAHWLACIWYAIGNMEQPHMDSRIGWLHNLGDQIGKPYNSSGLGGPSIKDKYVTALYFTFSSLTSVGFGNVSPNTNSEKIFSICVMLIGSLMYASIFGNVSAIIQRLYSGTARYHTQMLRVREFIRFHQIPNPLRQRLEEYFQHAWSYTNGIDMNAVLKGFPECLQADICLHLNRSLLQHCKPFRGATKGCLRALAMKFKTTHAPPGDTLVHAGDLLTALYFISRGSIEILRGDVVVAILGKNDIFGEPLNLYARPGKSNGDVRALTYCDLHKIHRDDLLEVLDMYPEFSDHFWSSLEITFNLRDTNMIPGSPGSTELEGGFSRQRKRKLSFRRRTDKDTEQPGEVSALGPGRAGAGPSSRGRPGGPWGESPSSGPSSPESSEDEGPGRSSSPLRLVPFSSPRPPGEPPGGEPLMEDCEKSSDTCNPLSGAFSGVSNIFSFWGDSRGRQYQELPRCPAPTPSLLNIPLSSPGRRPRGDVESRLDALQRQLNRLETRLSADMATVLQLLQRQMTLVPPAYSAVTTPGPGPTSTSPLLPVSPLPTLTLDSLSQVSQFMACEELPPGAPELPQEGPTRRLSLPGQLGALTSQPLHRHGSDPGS

Pseudomonas aeruginosa [10] = experiment: Antibacterial activity against Pseudomonas aeruginosa NB52023 harboring gyrA T83I mutant/ParC S87L mutant by CLSI-based broth microdilution assay; format: functional
Klebsiella pneumoniae = experiment: Antibacterial activity against wild type Klebsiella pneumoniae ATCC 43816 by CLSI-based broth microdilution assay; format: functional
Pseudomonas aeruginosa [11] = experiment: Antibacterial activity against wild type Pseudomonas aeruginosa PAO1 K767 by CLSI-based broth microdilution assay; format: functional
[12] = Protein binding in Sprague-Dawley rat plasma at 10 uM incubated for 4 hrs under shaking condition by LC-MS/MS analysis; format: ADME, cell-free; settings: read-out: PPB (converted)
[13] = Solubility of the compound in pH 7 PBS incubated for 24 hrs under gently shaking condition by UPLC/UV/CLND/MS analysis; format: physicochemical; settings: PBS, pH 7
[14] = Efflux ratio of apparent permeability in human Caco2 cells at 10 uM after 2 hrs by LC-MS/MS analysis; format: ADME, cell-based; settings: Caco-2
[15] = Protein binding in CD1 mouse plasma at 10 uM incubated for 4 hrs under shaking condition by LC-MS/MS analysis; format: ADME, cell-free; settings: read-out: PPB (converted)
[16] = Intrinsic clearance in rat liver microsomes at 1 uM in presence of NADPH and measured up to 30 mins by LC-MS/MS analysis; format: ADME, Microsome; settings: read-out: CLH
[17] = Protein binding in pooled human plasma at 10 uM incubated for 4 hrs under shaking condition by LC-MS/MS analysis; format: ADME, cell-free; settings: read-out: PPB (converted)
in vivo = settings: mouse, po, 10 mg/kg
[18] = Tmax in rat at 10 mg/kg, po measured up to 24 hrs by LC-MS/MS analysis; format: ADME, organism-based; settings: in vivo
Escherichia coli [19] = experiment: Bacteriostatic activity against Escherichia coli ATCC 25922 infected in mouse model of neutropenic thigh infection assessed as static dose compound administered subcutaneously 2 hrs post infection and measured after 24 hrs by serial dilution method; format: functional
[20] = Dose normalized Cmax in rat at 10 mg/kg, po measured up to 24 hrs by LC-MS/MS analysis; format: ADME, organism-based; settings: in vivo
[21] = Inhibition of recombinant full-length C-terminal His6-tagged Escherichia coli DNA topoisomerase 4 subunit ParC/ParE using kinetoplast DNA as substrate preincubated for 30 mins followed by substrate addition and measured after 1 hr in presence of ATP by size exclusion chromatography
[22] = Dose normalized AUC in rat at 10 mg/kg, po measured up to 24 hrs by LC-MS/MS analysis; format: ADME, organism-based; settings: in vivo

SMILES: Cc1c(N2CC[C@@H]([C@H](C)N)C2)c(F)cc2c(CN)cc(=O)n(C3CC3)c12
Selectivity ratio [1]: 16
MIC (Escherichia coli [2]): 1 µg/mL (≈ 2.79 µM)
logD [3]: -0.29
MIC (Pseudomonas aeruginosa [4]): 0.5 µg/mL (≈ 1.39 µM)
MIC (Escherichia coli [5]): > 32 µg/mL
MIC (Escherichia coli [6]): 0.06 µg/mL (≈ 0.167 µM)
microsomal CLint at 1 µM [7]: 14 µL/min/mg
Ratio (Escherichia coli [8]): >=64
IC50 [9]: > 300 µM
MIC (Pseudomonas aeruginosa [10]): 2 µg/mL (≈ 5.58 µM)
MIC (Klebsiella pneumoniae): 4 µg/mL (≈ 11.2 µM)
MIC (Pseudomonas aeruginosa [11]): 2 µg/mL (≈ 5.58 µM)
fraction unbound at 4 h, 10 µM [12]: 0.82
solubility at 24 h [13]: > 555 µg/mL
efflux ratio at 2 h, 10 µM [14]: 18
fraction unbound at 4 h, 10 µM [15]: 0.44
microsomal CLint at 1 µM [16]: < 7.7 µL/min/mg
fraction unbound at 4 h, 10 µM [17]: 0.83

Tmax at 24 h (in vivo): 15 min
Tmax [18]: 30 min
Cmax/dose [20]: 0.14 µM/mg/kg
IC50 [21]: 2.71 µM
AUC/dose [22]: 0.29 µM·h/mg/kg
SMILES: O=C(O)c1cn(C2CC2)c2cc(N3CCNCC3)c(F)cc2c1=O [CIPROFLOXACIN]
Activity (Escherichia coli [19]): 6.4 mg/kg/day
